The supplement of paper PMC10307832

Legend:
Assay in all cases: relative viability (nuclei count vs DMSO), 5 days (fraction); higher = more cells survive
Imatinib + Navitoclax = compound: Cc1ccc(NC(=O)c2ccc(CN3CCN(C)CC3)cc2)cc1Nc1nccc(-c2cccnc2)n1 [Imatinib] + CC1(C)CCC(c2ccc(Cl)cc2)=C(CN2CCN(c3ccc(C(=O)NS(=O)(=O)c4ccc(N[C@H](CCN5CCOCC5)CSc5ccccc5)c(S(=O)(=O)C(F)(F)F)c4)cc3)CC2)C1 [Navitoclax] (partner 0.5 µM)
Procedure, shortened: (§1)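 Lung cancer cell lines were seeded in 1536-well plates and dosed by pin tool the next day, with either a single drug or a fixed anchor-drug dose combined with five library-drug doses (not always all listed) spaced in √10 steps. Five days later, one step fixed the cells and stained their nuclei (final 0.05% Triton X-100, 1% formaldehyde, 1 ug/ml Hoechst), and nuclei were counted on 4× images. Relative viability is the nuclei count in treated wells divided by the count in vehicle wells, and each value is the median of duplicate plates.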

Imatinib + Phenformin = compound: Cc1ccc(NC(=O)c2ccc(CN3CCN(C)CC3)cc2)cc1Nc1nccc(-c2cccnc2)n1 [Imatinib] + N=C(N)NC(=N)NCCc1ccccc1 [Phenformin] (partner 250 µM)
Procedure, shortened: as §1

Imatinib + Palbociclib = compound: Cc1ccc(NC(=O)c2ccc(CN3CCN(C)CC3)cc2)cc1Nc1nccc(-c2cccnc2)n1 [Imatinib] + CC(=O)c1c(C)c2cnc(Nc3ccc(N4CCNCC4)cn3)nc2n(C2CCCC2)c1=O [Palbociclib] (partner 0.5 µM)
Procedure, shortened: as §1

Imatinib + AZD7762 = compound: Cc1ccc(NC(=O)c2ccc(CN3CCN(C)CC3)cc2)cc1Nc1nccc(-c2cccnc2)n1 [Imatinib] + NC(=O)Nc1cc(-c2cccc(F)c2)sc1C(=O)N[C@H]1CCCNC1 [AZD7762] (partner 0.2 µM)
Procedure, shortened: as §1

Row | Cell Line | relative viability (Imatinib + Navitoclax; first compound 0.02 µM) | relative viability (Imatinib + Navitoclax; first compound 0.06325 µM) | relative viability (Imatinib + Navitoclax; first compound 0.2 µM) | relative viability (Imatinib + Navitoclax; first compound 0.6325 µM) | relative viability (Imatinib + Navitoclax; first compound 2 µM) | relative viability (Imatinib + Phenformin; first compound 0.02 µM) | relative viability (Imatinib + Phenformin; first compound 0.06325 µM) | relative viability (Imatinib + Phenformin; first compound 0.2 µM) | relative viability (Imatinib + Phenformin; first compound 0.6325 µM) | relative viability (Imatinib + Phenformin; first compound 2 µM) | relative viability (Imatinib + Palbociclib; first compound 0.02 µM) | relative viability (Imatinib + Palbociclib; first compound 0.2 µM) | relative viability (Imatinib + Palbociclib; first compound 2 µM) | relative viability (Imatinib + AZD7762; first compound 0.2 µM) | relative viability (Imatinib + AZD7762; first compound 0.6325 µM) | relative viability (Imatinib + AZD7762; first compound 2 µM) | relative viability (Imatinib + Palbociclib; first compound 0.06325 µM) | relative viability (Imatinib + Palbociclib; first compound 0.6325 µM) | relative viability (Imatinib + AZD7762; first compound 0.02 µM) | relative viability (Imatinib + AZD7762; first compound 0.06325 µM)
1 | HCC-44 | 1.11 | 1.05 | 1.03 | 0.858 | 0.866 | 0.252 | 0.22 | 0.222 | 0.196 | 0.192 | 0.976 | 1.1 | 0.885 | 1.13 | 1.01 | 0.968 | – | – | – | –
2 | HCC-827 | 1.05 | 0.947 | 1.08 | 1.05 | 0.973 | 0.432 | 0.481 | 0.475 | 0.37 | 0.403 | 0.474 | 0.516 | 0.455 | 0.195 | 0.17 | 0.157 | 0.557 | 0.461 | 0.189 | 0.215
3 | NCI-H2087 | 1.07 | 1.03 | 1.21 | 1.11 | 0.956 | 0.478 | – | 0.478 | 0.548 | 0.535 | 0.192 | 0.188 | – | 1.58 | 1.35 | – | – | 0.243 | 1.33 | –
4 | NCI-H1666 | – | 1.16 | 1.06 | 1.1 | 1.06 | 0.534 | 0.613 | 0.592 | 0.663 | 0.551 | 0.678 | 0.642 | 0.621 | 0.792 | 0.849 | 0.809 | 0.628 | 0.705 | 0.902 | 0.873
5 | EMC-BAC-2 | 1.18 | 1.49 | 1.31 | 1.24 | 1.22 | 0.572 | 0.632 | 0.555 | 0.467 | 0.46 | 0.525 | 0.514 | 0.517 | 1.19 | 1.21 | 1.11 | 0.571 | 0.553 | 1.21 | 1.3
6 | NCI-H2405 | 0.984 | – | 0.845 | 0.706 | – | 0.366 | – | 0.341 | 0.329 | 0.333 | 0.534 | 0.533 | 0.572 | 0.706 | 0.635 | 0.651 | 0.57 | 0.493 | 0.813 | 0.791
7 | NCI-H460 | 1.65 | 1.58 | 1.96 | 1.17 | 1.3 | 0.621 | 0.555 | 0.557 | 0.443 | 0.478 | 0.278 | 0.191 | 0.104 | 0.606 | 0.489 | 0.509 | 0.22 | 0.196 | 0.658 | 0.783
8 | NCI-H3122 | – | 1.11 | 1.08 | 1.06 | 1.01 | 0.394 | 0.38 | 0.366 | – | 0.357 | 0.194 | 0.199 | 0.205 | 1.07 | 0.926 | 1.05 | 0.19 | 0.192 | – | –
9 | LC-2-ad | 0.481 | 0.361 | 0.514 | 0.707 | 0.468 | 0.626 | 0.603 | – | 0.603 | 0.557 | 0.543 | 0.559 | 0.508 | 0.76 | 0.772 | 0.813 | – | 0.5 | 0.965 | –
10 | HOP-62 | 0.983 | – | 1.36 | 1.04 | 0.517 | 0.77 | – | 0.858 | 0.613 | 0.66 | 0.503 | 0.516 | 0.398 | 0.707 | 0.504 | 0.687 | – | 0.408 | 0.532 | –
